Data reported in PMC4471902, “Block of NMDA receptor channels by endogenous neurosteroids: implications for the agonist induced conformational states of the channel vestibule” (Scientific Reports, 2015).
Several values for one entry are separate records, joined by “and”; a condition that tells them apart may be missing. Identical values can stand only once. Counter-ions that a name gives are not always drawn.

Tests used:
[1] = molecular target: T1, GluN1-4a(F484A)/eGFP-GluN3A receptor (Rattus norvegicus, UniProt P35439+Q9R1M7, F484A); assay: Whole-cell patch-clamp of glycine-activated GluN1-4a(F484A)/eGFP-GluN3A receptor responses in HEK293 cells; type: cell-based
T1 construct: eGFP; expressed in transfected cells; host or cells: HEK293
Excerpt: (§1) Human embryonic kidney (HEK293) cells were transfected with expression vectors containing: GluN1–1a (GenBank accession number U08261)[52]; GluN2B (GenBank accession number M91562); GluN1-4a(F484A), (generous gift from Dr. J. J. Woodward)[53] (Smothers & Woodward, 2009); GluN3A (generous gift from Dr. S. A. Lipton)[54] (GenBank accession number NM_138546); GluN1ΔN with deleted 354 amino acids in the NTD (32 to 386); GluN1ΔC with an introduced stop codon in 838 of the CTD GluN2BΔN) with deleted 354 amino acids in the NTD (32 to 386); GluN2BΔC with an introduced stop codon in 844 of the CTD[55]; GluR0 (GenBank accession number Synechocystis PCC 6803) (generous gift from Dr. M. L. Mayer)[18]; and green fluorescent protein (GFP) (pQBI 25, Takara, Tokyo, Japan) genes, as described previously. The Quick-Change site-directed mutagenesis kit (Agilent Technologies, Santa Clara, CA, USA) was used to generate specific point mutations in the M1/M3 region according to the manufacturer’s instructions using manually designed primers purchased from Sigma. Modified DNA plasmids were transformed into competent XL10-Gold E.coli cells, positive clones were selected, and isolated DNA was sequenced. […]
(§2) The IC50 was determined from a single dose of a steroid using the formula [drawing 1] where I is the relative degree of inhibition and [steroid] is the steroid concentration used. […]

[2] = molecular target: T2, GluN1ΔN/GluN2BΔN (Rattus norvegicus, UniProt P35439+Q00960, DEL32-386); assay: Whole-cell patch-clamp of N-terminal truncated NMDARs in HEK293 cells; type: cell-based; settings: 1 mM glutamate, PA-S 50 µM
T2 construct: expressed in transfected cells; host or cells: HEK293
Excerpt: as §1, §2

[3] = molecular target: T3, GluN1ΔC/GluN2BΔC (Rattus norvegicus, UniProt P35439+Q00960); assay: Whole-cell patch-clamp of C-terminal truncated NMDARs in HEK293 cells; type: cell-based
T3 construct: expressed in transfected cells; host or cells: HEK293
Excerpt: as §1, §2

[4] = test system: mutated GluN1/GluN2B receptors; assay: PA-S sensitivity of NMDARs mutated in the M1 and M3 regions of GluN1 and GluN2B (HEK293 cells); type: cell-based
Excerpt: Human embryonic kidney (HEK293) cells were transfected with expression vectors containing: GluN1–1a (GenBank accession number U08261)[52]; GluN2B (GenBank accession number M91562); GluN1-4a(F484A), (generous gift from Dr. J. J. Woodward)[53] (Smothers & Woodward, 2009); GluN3A (generous gift from Dr. S. A. Lipton)[54] (GenBank accession number NM_138546); GluN1ΔN with deleted 354 amino acids in the NTD (32 to 386); GluN1ΔC with an introduced stop codon in 838 of the CTD GluN2BΔN) with deleted 354 amino acids in the NTD (32 to 386); GluN2BΔC with an introduced stop codon in 844 of the CTD[55]; GluR0 (GenBank accession number Synechocystis PCC 6803) (generous gift from Dr. M. L. Mayer)[18]; and green fluorescent protein (GFP) (pQBI 25, Takara, Tokyo, Japan) genes, as described previously. The Quick-Change site-directed mutagenesis kit (Agilent Technologies, Santa Clara, CA, USA) was used to generate specific point mutations in the M1/M3 region according to the manufacturer’s instructions using manually designed primers purchased from Sigma. Modified DNA plasmids were transformed into competent XL10-Gold E.coli cells, positive clones were selected, and isolated DNA was sequenced. […] All mutations were verified by DNA sequencing (Macrogen, Seoul, Korea or SeQme, Dobris, Czech Republic). The amino acids are numbered according to the full-length protein, including the signal peptide, with the initiating methionine as 1.
Experiments were performed 24–48 hrs after transfection on cells transfected with GluN1/GluN2B/GFP plasmids. Whole-cell voltage-clamp recordings from HEK293 cells were made with a patch-clamp amplifier (Axopatch 200B; Axon Instruments, Inc., Foster City, CA) after a capacitance and series resistance (<10 MΩ) compensation of 80–90%.
Patch pipettes (3–5 MΩ) were filled with a solution containing (in mM): 120 gluconic acid, 15 CsCl, 10 BAPTA, 10 HEPES, 3 MgCl2, 1 CaCl2, and 2 ATP-Mg salt (pH-adjusted to 7.2 with CsOH). When GluR0 receptor responses were studied, intracellular solution contained (in mM): 120 gluconic acid, 15 KCl, 10 BAPTA, 10 HEPES, 3 MgCl2, 1 CaCl2, and 2 ATP-Mg salt (pH-adjusted to 7.2 with KOH). Extracellular solution (ECS) contained the following (in mM): 160 NaCl, 2.5 KCl, 10 HEPES, 10 glucose, 0.2 EDTA, and 0.7 CaCl2 (pH-adjusted to 7.3 with NaOH). Glycine (10 μM), an NMDAR co-agonist, was present in the control and test solutions. All (PA-S and PA-A) solutions were made from freshly prepared 20 mM PA-S and 5 mM PA-A stock in dimethyl sulfoxide (DMSO). The final dilution to ECS was made at 50 °C and followed by 1 min sonication (SONOREX DIGITEC DT 100/H, BADELIN electronic, Berlin, Germany). The same concentration of DMSO was added to all extracellular solutions. Drug applications were made with a microprocessor-controlled multibarrel fast-perfusion system. Changes in the glutamate-induced current in HEK293 cells transfected by GluN1/GluN2B subunits were used to estimate the rate of solution exchange around the cell. Standard ECS was switched to the ECS diluted by water (50%) during glutamate application. The osmolarity was adjusted by sucrose to match the standard ECS. Glutamate (1 mM), glycine (10 μM) and pH was maintained constant in both solutions. […]
as §2

[5] = Light scattering analysis of particle size in ECS; type: physicochemical
Experimental: Light scattering (Zetasizer Nano ZS, Malvern Instruments, United Kingdom) was used to characterize particle size of PA-S in ECS. PA-S was dissolved in DMSO at a concentration of 20 mM and then in the ECS at a final concentration of 5 nM to 150 μM PA-S. This solution was sonicated (Ultrasonic Sonorex Super RK 103 H, Bandelin electronic GmbH & Co. KG, Germany) for 1 min. Light scattering analysis was repeated six times for each sample at 25 °C.

T1 sequence (Q9R1M7 24-1135, other chains not shown): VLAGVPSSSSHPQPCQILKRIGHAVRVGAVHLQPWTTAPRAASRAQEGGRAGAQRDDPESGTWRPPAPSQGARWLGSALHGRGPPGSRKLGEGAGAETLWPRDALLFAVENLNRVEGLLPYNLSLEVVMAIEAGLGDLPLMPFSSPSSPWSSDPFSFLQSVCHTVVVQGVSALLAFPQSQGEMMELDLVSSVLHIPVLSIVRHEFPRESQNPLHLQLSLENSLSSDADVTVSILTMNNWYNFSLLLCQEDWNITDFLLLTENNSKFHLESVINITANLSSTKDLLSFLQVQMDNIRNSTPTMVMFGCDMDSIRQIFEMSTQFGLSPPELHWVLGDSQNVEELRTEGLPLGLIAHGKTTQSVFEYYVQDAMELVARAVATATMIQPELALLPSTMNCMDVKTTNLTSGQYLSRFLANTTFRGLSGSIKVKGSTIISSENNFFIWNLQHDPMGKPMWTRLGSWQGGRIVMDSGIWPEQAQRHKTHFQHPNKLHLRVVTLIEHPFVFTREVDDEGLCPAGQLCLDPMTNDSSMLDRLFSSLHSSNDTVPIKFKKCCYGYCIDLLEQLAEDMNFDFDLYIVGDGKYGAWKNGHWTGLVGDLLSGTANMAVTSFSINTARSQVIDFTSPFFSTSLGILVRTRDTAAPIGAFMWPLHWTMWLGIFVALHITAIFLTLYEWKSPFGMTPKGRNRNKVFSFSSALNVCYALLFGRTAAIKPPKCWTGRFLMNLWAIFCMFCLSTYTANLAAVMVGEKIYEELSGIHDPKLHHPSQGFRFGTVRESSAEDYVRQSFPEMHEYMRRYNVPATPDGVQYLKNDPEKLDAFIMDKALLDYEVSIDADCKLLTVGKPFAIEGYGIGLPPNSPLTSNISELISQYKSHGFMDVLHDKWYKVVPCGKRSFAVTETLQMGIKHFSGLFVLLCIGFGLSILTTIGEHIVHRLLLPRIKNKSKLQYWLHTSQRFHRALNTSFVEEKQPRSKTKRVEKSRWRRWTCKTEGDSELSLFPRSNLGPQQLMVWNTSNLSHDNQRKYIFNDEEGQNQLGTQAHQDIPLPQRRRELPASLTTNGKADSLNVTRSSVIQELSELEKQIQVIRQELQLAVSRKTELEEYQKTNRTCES

In the case of CC(=O)[C@H]1CC[C@H]2[C@@H]3CC[C@@H]4C[C@H](OS(=O)(=O)O)CC[C@]4(C)[C@H]3CC[C@]12C [PA-S, 20-oxo-5β-pregnan-3α-yl sulfate], the “degree of PA-S inhibition, mutated vs WT GluN1-4a subunit in combination with GluN3A” value [1] is reported as “no significant difference”, the IC50 ([1]; glycine-activated, PA-S 50 µM) is reported as 27 ± 3 µM and the IC50 [2] is reported as 41 ± 2 µM. The IC50 [3] was 34 ± 3 µM, the “difference of PA-S IC50 between GluN1(T648A)/GluN2B and GluN1/GluN2B(T647A) receptors” value [4] was 5.4 fold and the “change of PA-S IC50 relative to the WT receptor value” ([4]; GluN1: F654A, GluN2B: P547A/S548A, F550A, L551A/E552A, F637A/F638A, Y646A, M654A, E657A/E658A) was “less than half”. For the same compound, the “change of PA-S IC50 relative to the WT receptor value” ([4]; GluN1: Y647A, T648A, A649T, N650A/L651A, V656A, GluN2B: S645A, T647A, A652T) was “over two-fold”, the IC50 ([4]; residues whose mutation decreased the IC50 by half (GluN1: F654A; GluN2B: P547A/S548A, F550A, L551A/E552A, F637A/F638A, Y646A, M654A, E657A/E658A)) was less than 21 µM and the IC50 ([4]; residues whose mutation increased the IC50 more than two-fold (GluN1: Y647A, T648A, A649T, N650A/L651A, V656A; GluN2B: S645A, T647A, A652T)) was greater than 84 µM. The “PA-S concentration at which two particle sizes are present” value ([5]; ECS) was greater than 300 nM, the “PA-S concentration at which two particle sizes were observed” value ([5]; ECS) was no less than 0.4 µM and the “small particle size (single steroid molecule)” value ([5]; ECS) was ~ 2.5 nm. The “critical aggregate concentration (CAC)” value ([5]; ECS, 25 °C) was ~ 300 nM and 300 nM, the size of aggregates ([5]; ECS, concentrations relevant to effect at the NMDAR) was ~ 400 nm and the “molecules present in the ECS in aggregates” value ([5]; at the PA-S concentration corresponding to its IC50 at NMDARs) was 99.5%.
